Experiments:
[1] = Inhibition of pseudotype HIV1 integrase strand transfer activity assessed as reduction in viral replication in HIV1 infected human CIP4 cells after 2 days by luciferase reporter gene assay
[2] = Inhibition of pseudotype HIV1 integrase strand transfer activity assessed as reduction in viral replication in HIV1 infected human CIP4 cells after 2 days in presence of 40% human serum albumin by luciferase reporter gene assay

| SMILES | IC50 [1] [nM] | IC50 [2] [nM] |
| --- | --- | --- |
| N#Cc1c2c(c(O)c3ncc(Cc4cccc(Cl)c4F)cc13)C(=O)N1CCCC[C@@H]21 | 18 | 1280 |
| O=C1c2c(cc3cc(Cc4cccc(Cl)c4F)cnc3c2O)CN2CCCN12 | 16 | 136 |
| N#Cc1c2c(c(O)c3ncc(Cc4cccc(Cl)c4F)cc13)C(=O)N1CCCC[C@H]21 | 15 | 457 |
| NC(=O)c1c2c(c(O)c3ncc(Cc4cccc(Cl)c4F)cc13)C(=O)N1CCC[C@@H]1C2 | 8 | 30 |
| NC(=O)c1c2c(c(O)c3ncc(Cc4cccc(Cl)c4F)cc13)C(=O)N1CCC[C@H]1C2 | 3 | 15 |
| N#Cc1c2c(c(O)c3ncc(Cc4cccc(Cl)c4F)cc13)C(=O)N1CCC[C@@H]1C2 | 7 | 4540 |
| N#Cc1c2c(c(O)c3ncc(Cc4cccc(Cl)c4F)cc13)C(=O)N1CCC[C@H]21 | 5 | 294 |
| N#Cc1c2c(c(O)c3ncc(Cc4cccc(Cl)c4F)cc13)C(=O)N1CCC[C@H]1C2 | 14 | 66 |
| N#Cc1c2c(c(O)c3ncc(Cc4cccc(Cl)c4F)cc13)C(=O)N1CCC[C@@H]21 | 10 | 3320 |

Further molecules by falling IC50 [1], results first:

| IC50 [1] [nM] | IC50 [2] [nM] | SMILES |
| --- | --- | --- |
| 3 |  | Cn1c(=O)c(C(=O)NCCO)c(O)c2ncc(Cc3ccc(F)cc3)cc21 [GSK364735] |
| 2.2 | 415 | N#Cc1c2c(c(O)c3ncc(Cc4cccc(Cl)c4F)cc13)C(=O)N1CCCN1C2 |
| 2 |  | O=C(NCc1ccc(F)cc1)c1cn2c(c(O)c1=O)C(=O)N1CCCO[C@H]1C2 |
| 0.7 | 1 | NC(=O)c1c2c(c(O)c3ncc(Cc4cccc(Cl)c4F)cc13)C(=O)N1CCCC[C@H]21 |
| 0.6 | 2 | NC(=O)c1c2c(c(O)c3ncc(Cc4cccc(Cl)c4F)cc13)C(=O)N1CCCC[C@@H]21 |

— BindingDB's records for doi:10.1016/j.ejmech.2016.03.038 (Glaxosmithkline, 2016)
